Data on one molecule can be found in paper PMC6927504, “Screening of House Dust from Chinese Homes for Chemicals with Liver X Receptors Binding Activities and Characterization of Atherosclerotic Activity Using an in Vitro Macrophage Cell Line and ApoE^−/− Mice” (Environmental Health Perspectives, 2019).

A short description of data set [1]: Body weight of ApoE−/− mice. To be noted: 10 and 40 mg/kg BW, 13 weeks. The data set is classed as in vivo, mouse. From the text:
All experiments related to animals were approved by the institutional animal care and use committee of Peking University and followed the guidelines for animal experiments of the university as well as for experimental animals in China. The biological effect size of the animal experiments was based on the previous paper ([Negro Silva et al. 2017]). C57BL/6 (12 weeks old) and ApoE^−/− mice (12 weeks old) were obtained from the Beijing Vital River Laboratory Animal Technology Company. Mice used in the experiments were acclimated to the housing unit 2 weeks before they were used for experiments, and they were randomly assigned to control or TPHP treatment groups. Five animals were housed to a cage, and mice were acclimatized to the controlled environment (temperature: 22±2°C; relative humidity: 40–60%; artificial lighting: 12 h:12 h light/dark). Mice received diet and drinking water ad libitum. Body weight (BW) was measured every week during the dosing period. Forty-five C57BL/6 mice and 27 ApoE^−/− mice were used in this study. […] Considering that this study assessed the effects of short-term exposure to TPHP, whereas humans are exposed to TPHP over a lifelong period, the present study used exposure doses that were higher than that of human exposure from house dust. […]

Data set [2] deals with peroxisome proliferator-activated receptor-γ (PPARγ). Set-up: method as in Hu et al. 2017; Pillai et al. 2014. To be noted: ref Hu et al. 2017; Pillai et al. 2014; cited from earlier work.
The test system of another data set is ABCA1. The data set can be described thus: qRT-PCR of LXR target gene ABCA1 in RAW264.7 macrophages. The data set is classed as cell-based. The conditions noted are these: vehicle-treated cells set to 1, p<0.01. As to the method: (§1) RAW264.7 cells were obtained from the National Infrastructure of Cell Line Resource of Beijing, China, and the cells used for the experiment were cultured for at least three passages. Dulbecco’s Modified Eagle’s Medium (DMEM)-F12 medium containing 10% fetal bovine serum (FBS) was employed to culture the RAW264.7 cells. RAW264.7 cells were incubated at 37°C with 5% carbon dioxide. The RAW264.7 cells were plated at 2.5×10^5 cells/well (6-well plates), 6.0×10^4 cells/well (24-well plates), and 10^4 cells/well (96-well plates). The RAW264.7 cells were plated and grown overnight; then the medium was removed and fresh DMEM-F12 contained with 0.1% DMSO (control; n=3 ) or TPHP at the concentrations of 1–20,000 nM ( n=3 per group) was added. […] Then the cells were used for the quantitative reverse transcription (qRT)-PCR, cellular cholesterol efflux assay, and foam cell formation experiment.
Total RNA was isolated from RAW264.7 cells and mouse peritoneal macrophages using TRIzol reagent according to the manufacturer’s instructions. Then a Nanovue Plus™ spectrophotometer (GE Healthcare Life Science) was used to analyze the concentration, quality, and purity of the RNA. Total RNA ( 1μg ) was mixed with oligo deoxythymine (dT) ( 1μL ) at 70°C for 5 min and then combined with a mixture containing Moloney murine leukemia virus (MMLV) reverse transcriptase ( 1μL ), deoxy-ribonucleoside triphosphate (dNTP) ( 1.25μL ), Recombinant RNasin® Ribonuclease Inhibitor (Promega) ( 0.65μL ), and MMLV buffer ( 5μL ) at 42°C for 60 min. The SYBR® Green PCR Kit (TOYOBO) was used for RT-PCR analysis. Real-time fluorescence detection was performed using the StepOnePlus™ sequence detection system (Applied Biosystems). […] The following primers were designed and purchased from Sangon Biotech:
• actin: 5′-[…]-3′ and 5′-[…]-3′ ATP-binding cassette transporter A1 (ABCA1): 5′-[…]-3′ and 5′-[…]-3′ • ATP-binding cassette transporter G1 (ABCG1): 5′-[…]-3′ and 5′-[…]-3′.

For the next data set, the system named is RAW264.7 macrophages. The data set can be described thus: Foam cell formation (ox-LDL, BODIPY 493/503 staining) in RAW264.7 macrophages. The data set is classed as cell-based. On the procedure:
as §1
RAW264.7 cells or mouse peritoneal macrophages were plated in 24-well plates at 6.0×10^4 cells/well and grown overnight. Then the medium was removed and fresh DMEM-F12 containing 10% FBS, 20μg/mL oxidized low-density lipoprotein (ox-LDL), and 0.1% DMSO (control; n=3 ) or TPHP at the concentration of 1–20,000 nM ( n=3 per group) was added. The cells were washed with PBS, followed by fixing in 4% paraformaldehyde for 30 min and staining with boron-dipyrromethene (BODIPY) 493/503 ( 20μg/mL ) and 4′,6-diamidino-2-phenylindole (DAPI; 100 ng/mL ) for 10 min. Foam cell formation was analyzed by high-content microscopy using ImageXpress® Micro XL (Molecular Devices). From each well, 25 image fields were scanned, and MetaXpress® (Molecular Devices) was used to quantify compartmentalized changes in the fluorescence of each cell.

The structures appear in SMILES notation.

Turning to `O=P(Oc1ccccc1)(Oc1ccccc1)Oc1ccccc1` [TPHP, triphenyl phosphate], in data set [1], the “Body weight versus control” value is on record as “No significant differences”. Further, the PPARγ activity entry in data set [2] is on record as “agonist”. The “ABCA1 gene expression relative to control” value with ABCA1 (5,000 nM) is 0.49±0.06 fold; in the data set on ABCA1 (10,000 nM), 0.38±0.01 fold; with ABCA1 (20,000 nM), 0.30±0.03 fold. Further, the “Intensity of foam cell staining relative to control” value with RAW264.7 macrophages (100 nM, p<0.01) is reported as 1.64±0.02 fold; in the data set on RAW264.7 macrophages (1,000 nM, p<0.01), 1.67±0.14 fold; in the data set with RAW264.7 macrophages (5,000 nM, p<0.05), 1.78±0.31 fold; in the data set with RAW264.7 macrophages (10,000 nM, p<0.05) it was 2.08±0.45 fold; in the data set on RAW264.7 macrophages (20,000 nM, p<0.05), 2.09±0.52 fold.
